Source: patent publication US20110207655A1, “CYCLIC DEPSIPEPTIDE COMPOUND AND USE THEREOF” (Astellas Pharma Inc., priority 2008, published 2011)
Starred links: 1 amine or outer side, 2 acyl side, 3 side chain; linkers in the order of their positions; H or OH if unused. Positions of bridges follow the written chain, without caps; N, C: chain ends. Non-standard residues stand in square brackets, D forms with d. Residues, ends and D or L forms follow the SMILES beside them. Leu(3R-O(AcLeu(3R-OH))) = CC(=O)N[C@H](C(=O)O[C@H](C(C)C)[C@H](N)C(=O)O)[C@H](O)C(C)C; X1 = CO[C@H](C)C(C(=O)[*:2])N(C)[*:1]; dPhLac = O=C(O)[C@H](O)Cc1ccccc1; NMeA = CN[C@@H](C)C(=O)O; NMeDha = C=C(NC)C(=O)O

Experiments:
[1] = test system: tobacco smoke inhalation-induced airway inflammation; assay: Action of nasal drop administration on the tobacco smoke inhalation-induced airway inflammation; assay type: in vivo, BALB/c male mice; conditions: mice, nasal drop 1, 10 and 100 μg/kg once a day; bronchoalveolar lavage cell count at Day 11
Method: BALB/c male mice (Charles River Laboratories Japan, Inc.) were used in experiments. Sodium pentobarbital (40 mg/kg) was administered intraperitoneally to the mice for anesthesia. During a period of time ranging from Day 0 to Day 10 (except for Days 5 and 6), the test compound (1, 10, and 100 μg/kg) were administered nasally to the mice once a day. The Vehicle group was similarly injected with physiological saline by nasal drop administration. There were 10 animals in each group. The mice were put into chambers at 1 hour after nasal drop administration, and using a tobacco smoke generator (SG-200, Sibata Scientific Technology Ltd.), the tobacco smoke was inhaled to a concentration in air up to 4% for 1 hour. After intraperitoneal administration of sodium pentobarbital (80 mg/kg) to the mice at Day 11, the mice were subject to blood removal to be euthanized. After respiratory arrest, the trachea was incised, bronchoalveolar lavage was performed with PBS(−) 0.5 mL×3 times, and the washing liquid was collected. The supernatant was removed by centrifugation, the cells were then resuspended in PBS(−), and for white blood cells (WBC), neutrophils (NEUT), lymphocytes (LYMPH), macrophages (MONO), and eosinophils (EO), the cell count was measured with a Multiple Parameter Automatic Hematology Analyzer (XT-2000i, Sysmex Corporation).

[2] = test system: methacholine-induced airway contraction; assay: Inhibitory action of intratracheal administration on the methacholine-induced airway contraction; assay type: in vivo, SD male rats; conditions: rats; for airway contraction inhibitory rate: 1 hour before methacholine 30 μg/kg i.v., vs saline group
Method: SD male rats (Charles River Laboratories Japan, Inc.) were used in experiments. Urethane (1.2 g/kg) was administered intraperitoneally to the rats for anesthesia. Using a metal canula for intratracheal administration, test compounds (0.3, 1, and 3 μg/kg) or physiological saline was administered intratracheally (3 or 4 animals) at a volume of 0.5 mL/kg. Cannulation for intravenous administration was carried out in the external jugular vein of the rats. A tracheostomy cannula was inserted through an incision in the trachea and mechanical ventilation (10 mL/kg, 90 times/min) was carried out using a Breathing Analysis Computer System (flexiVent, SCIREQ Inc.). The mechanical ventilator circuit was connected with a pressure transducer (TP-400T, Nihon Kohden Corporation) and the change in airway pressure was measured. The airway pressure signal was amplified with a strain pressure amplifier (AP-601G, Nihon Kohden Corporation) and recorded on chart paper by a thermal pen recorder (WT-685G, Nihon Kohden Corporation, or LINEARCORDER F WR3701, Graphtec). The body temperature of the rats was maintained at 37° C. using a body temperature-maintaining device (BWT-100, Bio Research
Center). At 1 hour after intratracheal administration of the test compound, a solution of acetyl-β-methacholine chloride in physiological saline (30 μg/kg, acetylcholine β-methacholine chloride=manufactured by SIGMA Co.) was administered intravenously to induce the airway contraction response. The airway contraction inhibitory rate of the test compound was calculated by comparing the airway pressure increase rate (%) with one obtained by intratracheal administration of physiological saline, and ED50 values were determined.

G15 and G16 = conditions: Non-Patent Citation 3; cited from earlier work

## C=C1C(=O)N[C@@H](C)C(=O)N(C)[C@@H](C)C(=O)N[C@@H]([C@H](OC(=O)[C@@H](NC(C)=O)[C@H](O)C(C)C)C(C)C)C(=O)N(C)C([C@@H](C)OC)C(=O)O[C@H](C)[C@H](NC(C)=O)C(=O)O[C@H](Cc2ccccc2)C(=O)N1C (stereo partly drawn) [Ref 1] (Ac-T[dPhLac][NMeDha]A[NMeA][Leu(3R-O(AcLeu(3R-OH)))][X1]; ester 1-C)
[1]
  infiltration of eosinophils into the airway: significantly inhibited
  infiltration of lymphocytes into the airway: significantly inhibited
  infiltration of neutrophils into the airway: significantly inhibited
[2]; Rattus norvegicus, intratracheal, calculated from three points, read-out: ED50 value of inhibition of methacholine-induced airway contraction
  ED50: 0.73 µg/kg
[2]; intratracheal 0.3 μg/kg
  airway contraction inhibitory rate: 32%
[2]; intratracheal 1 μg/kg
  airway contraction inhibitory rate: 45%
[2]; intratracheal 3 μg/kg
  airway contraction inhibitory rate: 98%
G15 and G16
  inhibition of G15 and G16: does not inhibit
